According to patent publication US20240024287A1, “APPLICATION OF ANLE138B IN DRUG FOR IMPROVING DIET-INDUCED INSULIN RESISTANCE” (The First Affiliated Hospital of Shantou University Medical …, priority 2022, published 2024):
Several values for one entry are separate records, joined by “and”; a condition that tells them apart may be missing. Equal values may be shown once. Marks after values point to notes of the source that are not given here.

Legend:
[1] = system: high-fat-induced rat insulin resistance models; assay: Anle138b treatment versus paired-feed (PF) group in high-fat rat insulin resistance models; type: in vivo; conditions: high-fat model, 5 mg/kg, compared with PF group
Experimental: The rats fed with high-fat diet for 8 weeks were divided into paired-feed group (n=7) (the food intake was the same as that of high-fat Anle138b 5 mg/kg/d) and control group continuously fed with high-fat diet.
Pair-feed (PF) group: the pair-feed group was set according to the daily food intake in the high-fat group after intervention with Anle138b 5 mg/kg, the rats were given the same amount of high-fat diet every day, and the changes in the body weight and the metabolic indexes were measured.

[2] = system: high-fat-induced rat insulin resistance models; assay: High-fat-induced rat insulin resistance model, therapeutic administration; type: in vivo
Source text: (§1) 8-week-old male […] were selected as experimental animals. The rats were adaptively fed for 1 week after purchase, and then weighed for the fasting body weight. The healthy rats weighing 22-24 g were selected and randomly divided into groups according to the experimental flow design. (1) The rats were fed with normal feed and high-fructose feed for 8 weeks; (2) the rats were fed with high-fat feed for 12 weeks; (3) the rats were fed with high-fat feed for 8 weeks as a preventive experiment. Fasting body weights were measured and recorded regularly every week, and the rats were guaranteed to have free access to water and food during feeding. The food intake, water intake, and free movement of the model rats were continuously observed, and the rats with stunted growth, rough hair, and rickety posture after eating high-fructose and high-fat diets were screened out. In the experiment later, the rats were fed with normal feed or high-fructose/high-fat feed during the 2 weeks of intraperitoneal injection to ensure the consistency before and after administration.
(§2) A total energy-to-mass ratio was 4.73 kcal/g. The feed was provided by Beijing Huafukang Biotechnology Co., Ltd.
(§3) Anle138b solutions: The drug doses required for 1 week of intervention for each group of rats were calculated, Anle138b drug concentrations of 1 mg/kg (0.01%), 3 mg/kg (0.03%) and 5 mg/kg (0.05%) were prepared, Anle138b powder was weighed and then added in 10% DMSO, 40% PEG300, 5% Tween-80 and 45% saline in sequence, each mixture was evenly blended by vortex into a clear solution, and each Anle138b solution was separately bottled according to the daily dose and stored in a refrigerator at 4° C.
(§4) The 8-week-old adult rats were modeled by changing the diets after 1 week of adaptive feeding. Blood was collected from the right orbital venous plexus with a glass tube at 8 weeks and 12 weeks after model establishment and after fasting (>12 h), and blood glucose levels were measured with a blood glucose tester (Sannuo GA-3); and the insulin resistance mode was judged by the subsequent determination of metabolic indexes, such as glucose tolerance test by intraperitoneal injection, fasting serum insulin (enzyme-linked immunosorbent assay, Raybiotech), serum triglyceride (GPO-PAP single-reagent microplate method, Nanjing Jiancheng) and cholesterol ([…] single-reagent microplate method, Nanjing Jiancheng).
The rat IR models were randomly divided into two groups, the rats were administrated with Anle138b 3 mg/kg (n=6, 0.03%) and 5 mg/kg (n=6, 0.05%) for 2 weeks continuously, once a day.
After the models were determined to be successful, the average value of food intake of each rat in the first two days was taken as its own food intake base. After the drug intervention, the daily food intake and body weight were measured and compared with their own bases for comparison of the standardized food intake and body weight of each rat. […]

[3] = system: high-fructose-induced rat insulin resistance models; assay: High-fructose-induced rat insulin resistance model, therapeutic administration; type: in vivo
Source text: as §1, §3
L-THP solution: The drug dose required for 1 week of intervention for each group of rats was calculated, L-THP drug concentrations of 3 mg/kg (0.03%) was prepared, light yellow L-THP powder was weighed and then added in 10% DMSO, 40% PEG300, 5% Tween-80 and 45% saline in sequence, each mixture was evenly blended by vortex into a clear solution, and each Anle138b solution was separately bottled according to the daily dosage and stored in a refrigerator at 4° C.
as §4
The rats were fed with 60% high-fructose diet for 8 weeks to establish insulin resistance models, and the rats fed with normal diet provided by the animal room of Shantou University Medical College were used as controls. After fasting, orbital blood was collected, and fasting blood glucose, serum insulin, glucose tolerance were determined to judge whether the modeling was successful. According to an insulin resistance index (HOMA-IR) as the core judgment index, the successfully modeled rats were enrolled by screening the IR index of >3 and randomly divided into groups to explore the influence of different concentrations of Anle138b on the rat insulin resistance models. The concentration gradients for different groups were 0 mg/kg (injection solvent, namely the model control group), 1 mg/kg, 3 mg/kg and 5 mg/kg clear Anle138b solution, as well as the L-THP 3 mg/kg positive drug control group. The rats were administrated by intraperitoneal injection for 2 weeks continuously, once a day.
The insulin resistance value was calculated in combination with the method for calculating the insulin resistance index (HOMA-IR) in the homeostasis model assessment method. […]

[4] = system: high-fat-induced rat insulin resistance model; assay: High-fat-induced rat insulin resistance model, preventive administration; type: in vivo, C57BL/6J rats; conditions: high-fat diet, preventive 5 mg/kg
Source text: as §1, §2, §3, §4
Rats fed with high-fat diet for 5 weeks were randomly divided into high-fat feeding control group (n=6) and drug intervention group with Anle138b 5 mg/kg, and the rats were administered for 3 weeks continuously, once every two days.

normal rats = assay: Normal rats given Anle138b (normal drug / drug control group); type: in vivo; conditions: 3 mg/kg i.p., 2 weeks
Source text: as §1, §3, §4
(1) The normal rats were randomly divided into two groups: blank control group (n=6) and drug control group (n=7); the rats in the normal control group were intraperitoneally injected with a similar volume of solvent and Anle138b (3 mg/kg, 0.03%) according to the body weight for 2 weeks.

[5] = 3 mg/kg/d, 2 weeks, 3 mg/kg/day
[6] = 5 mg/kg/d, 2 weeks, 5 mg/kg/day
[7] = 2 weeks, with increase of drug concentration
[8] = 1 mg/kg i.p. once a day, 2 weeks
[9] = 3 mg/kg i.p. once a day, 2 weeks
[10] = 5 mg/kg i.p. once a day, 2 weeks

## Brc1cccc(-c2cc(-c3ccc4c(c3)OCO4)[nH]n2)c1 [Anle138b]
[1]
  Average body weight: 28.23 ± 0.66 g
  Fasting Blood Glucose: 4.87 ± 0.36 mmol/L
  Feeding efficiency: −0.015±0.013
  Triglyceride: 0.52 ± 0.06 mmol/L
[2]; 3 mg/kg
  Fat weight index: 0.01317±0.004212
  Feeding efficiency (daily body weight change/energy consumption): −0.007788±0.01949 g/calories/rat/day
  Glucose tolerance test area under curve (AUC): 1,203±155.6 min*mmol/L
  Liver weight index: 0.04475±0.003
[2]; 3 mg/kg and 5 mg/kg
  Liver pathomorphism, HE staining: the hepatic steatosis was significantly alleviated
[2]; 3 mg/kg and 5 mg/kg, as the dose increases
  Pancreas pathomorphism, HE staining: the acinar steatosis was significantly alleviated
[2]; 3 mg/kg once a day, 2 weeks
  Average daily food intake: 1.946 ± 0.4777 g/day
  Body weight after intervention: 28.97 ± 1.657 g
[2]; [5]
  Fasting Blood Glucose: 5.283 ± 0.74 mmol/L
  Fasting Insulin: 55.24±28.94 μIU/mL
  Insulin Resistance Index: 11.6±5.044 μIU/mL*mmol/L and 11.6 ± 5.04 μIU/mL*mmol/L
  Triglyceride: 0.5138 ± 0.06 mmol/L
[2]; 5 mg/kg
  Fat weight index: decreased
  Feeding efficiency (daily body weight change/energy consumption): −0.01528±0.01287 g/calories/rat/day
  Glucose tolerance test area under curve (AUC): 1,059±153.2 min*mmol/L
  Liver weight index: 0.04344±0.0026
[2]; 5 mg/kg once a day, 2 weeks
  Body weight after intervention: 28.9 ± 1.685 g
[2]; 5 mg/kg once a day, 2 weeks, P<0.001
  Average daily food intake: significantly lower than that of the model group
[2]; [6]
  Fasting Blood Glucose: 4.867 ± 0.36 mmol/L
  Fasting Insulin: 36.27±16.53 μIU/mL
  Insulin Resistance Index: 8.446±3.617 μIU/mL*mmol/L and 8.446 ± 3.62 μIU/mL*mmol/L
  Triglyceride: 0.5164 ± 0.06 mmol/L
[2]; [7]
  Epididymal adipose tissue pathomorphism, HE staining: the adipocytes were reduced in sizes and arranged regularly
[2]; drug intervention 2 weeks
  Skeletal muscle pathomorphism, HE staining: the intermuscular steatosis was relieved
[3]; [8]
  Body Weight After Administration: 25.58 ± 1.555* * g
  Fasting Blood Glucose: 5.100 ± 0.65 # mmol/L
  Fasting Insulin: 48.97 ± 1.38 μIU/mL
  HOMA-IR: 11.3 ± 1.78 μIU/mL*mmol/L
[3]; 1 mg/kg i.p., 2 weeks
  Glucose tolerance test area under curve (AUC): 1,307±46.38 min*mmol/L
  Right epididymal fat weight index (fat weight/fasting body weight): 0.008918±0.0003788
[3]; [9]
  Body Weight After Administration: 25.51 ± 0.8009 g
  Fasting Blood Glucose: 5.300 ± 0.89 mmol/L
  Fasting Insulin: 21.46 ± 10.36 # μIU/mL
  HOMA-IR: 5.438 ± +2.13 # μIU/mL*mmol/L
[3]; 3 mg/kg i.p., 2 weeks
  Right epididymal fat weight index (fat weight/fasting body weight): 0.007657±0.002366
[3]; [10]
  Body Weight After Administration: 24.25 ± +2.652 g
  Fasting Blood Glucose: 4.675 ± 0.95 # mmol/L
  Fasting Insulin: 25.74 ± 12.24 # μIU/mL
  HOMA-IR: 5.827 ± 3.78 # μIU/mL*mmol/L
[3]; 5 mg/kg i.p., 2 weeks
  Glucose tolerance test area under curve (AUC): 1,261±103.2 min*mmol/L
  Right epididymal fat weight index (fat weight/fasting body weight): 0.007971±0.00142
[3]; [7]
  Epididymal adipose tissue pathomorphism, HE staining: the adipocytes were reduced in sizes and arranged regularly
[3]; different concentrations, dose-dependent
  Liver pathomorphism, HE staining: the hepatic steatosis was significantly alleviated
[4]
  Adipose tissue pathomorphism, HE staining: relieved the structural disorder of the adipose tissue
  Daily feeding efficiency: −0.03518±0.02726
  Fasting Blood Glucose: 6.313 ± 0.63 mmol/L
  Fasting Insulin: 22.09±6.49 μIU/mL
  Fat weight index: 0.01195±0.003
  Glucose tolerance test area under curve (AUC): 1,269±74 min*mmol/L
  Insulin Resistance Index: 6.880±2.73 μIU/mL*mmol/L
  Liver weight index: 0.03763±0.001
  Pancreas pathomorphism, HE staining: significantly inhibit the steatosis of pancreatic acinar cells
  Total Cholesterol: 3.383 ± 0.21 mmol/L
  Triglyceride: 0.4687 ± 0.05 mmol/L
[4]; 3 weeks, once every two days
  Body weight at end point of prevention experiment: 25.8 ± 0.67 g
  Food intake: 1.805±0.19 g/rat
Normal rats
  Body Weight After Administration: 25.65 ± 0.7842 g
  Fasting Blood Glucose: 3.650 ± 0.33 mmol/L
Normal rats; 3 mg/kg
  Fasting Insulin: 15.08±13.14 μIU/mL
  HOMA-IR: 1.1689±1.153 μIU/mL*mmol/L and 1.1689 ± 1.15 μIU/mL*mmol/L

## COc1cc2c(cc1OC)[C@@H]1Cc3ccc(OC)c(OC)c3CN1CC2 [L-THP, reference compound]
[3]; [9]
  Body Weight After Administration: 24.24 ± 1.255 g
  Fasting Blood Glucose: 4.967 ± 0.39 # mmol/L
  Fasting Insulin: 24.76 ± 9.70 # # μIU/mL
  HOMA-IR: 6.029 ± 3.33 # μIU/mL*mmol/L
[3]; 3 mg/kg i.p., 2 weeks
  Right epididymal fat weight index (fat weight/fasting body weight): 0.00751±0.002279
